From the supplement of paper PMC10307832

Legend:
Experiment in all cases: relative viability (nuclei count vs DMSO), 5 days (fraction); higher = more cells survive
[1] = compound: COc1cc(Nc2ncc(F)c(Nc3ccc4c(n3)NC(=O)C(C)(C)O4)n2)cc(OC)c1OC [R406] + CC1(C)CCC(c2ccc(Cl)cc2)=C(CN2CCN(c3ccc(C(=O)NS(=O)(=O)c4ccc(N[C@H](CCN5CCOCC5)CSc5ccccc5)c(S(=O)(=O)C(F)(F)F)c4)cc3)CC2)C1 [Navitoclax] (partner 0.5 µM)
Procedure, shortened: (§1)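 Dosing by pin tool came one day after lung cancer cell lines were seeded in 1536-well plates, using either one drug or a fixed anchor-drug dose plus five library-drug doses (not always all listed) in √10 steps. After 5 days, nuclei were counted on 4× images. Relative viability is treated-well nuclei count divided by vehicle-well nuclei count, and values are medians of duplicate plates.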

[2] = compound: O=C(/C=C/c1cccnc1)NCCCCC1CCN(C(=O)c2ccccc2)CC1 [Daporinad] + N=C(N)NC(=N)NCCc1ccccc1 [Phenformin] (partner 250 µM)
Procedure, shortened: as §1

[3] = compound: O=C(/C=C/c1cccnc1)NCCCCC1CCN(C(=O)c2ccccc2)CC1 [Daporinad]
Procedure, shortened: (§2)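 Viability here means nuclei in treated wells divided by nuclei in vehicle wells, reported as the median across plates. Only plates with control CV below 25% and at least one doubling passed. Lung cancer cell lines in 1536-well plates were exposed to five √10-spaced library-drug doses for 5 days and counted from 4× Hoechst images in MetaXpress.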

[4] = compound: COc1cc(Nc2ncc(F)c(Nc3ccc4c(n3)NC(=O)C(C)(C)O4)n2)cc(OC)c1OC [R406]
Procedure, shortened: as §2

Row | Cell Line | relative viability ([1]; first compound 0.08 µM) | relative viability ([1]; first compound 0.253 µM) | relative viability ([1]; first compound 0.8 µM) | relative viability ([1]; first compound 2.53 µM) | relative viability ([1]; first compound 8 µM) | relative viability ([2]; first compound 0.0005 µM) | relative viability ([2]; first compound 0.001581 µM) | relative viability ([2]; first compound 0.005 µM) | relative viability ([2]; first compound 0.01581 µM) | relative viability ([3]; 0.0005 µM) | relative viability ([3]; 0.001581 µM) | relative viability ([3]; 0.005 µM) | relative viability ([3]; 0.01581 µM) | relative viability ([4]; 0.08 µM) | relative viability ([4]; 0.253 µM) | relative viability ([4]; 0.8 µM) | relative viability ([4]; 2.53 µM) | relative viability ([4]; 8 µM)
1 | CAL-12T | 1.16 | 1.21 | 1.26 | 1.05 | 1.06 | 0.523 | 0.613 | 0.296 | 0.188 | 0.904 | 1.03 | 0.735 | 0.269 | 0.993 | 1.22 | 1.12 | 0.511 | 0.434
2 | SK-LU-1 | 0.483 | 1.2 | 0.725 | 0.385 | 0.145 | 0.444 | 0.649 | 0.628 | 0.662 | 1.06 | 1.11 | 1.19 | 1.12 | 0.955 | 1.16 | 1.15 | 0.513 | 0.386
3 | NCI-H1650 | 1.3 | 1.15 | 1.5 | 1.24 | 0.747 | 0.406 | 0.55 | 0.416 | 0.223 | 0.981 | 1.05 | 1.07 | 0.848 | 1.02 | 1.23 | 1.06 | 0.212 | 0.155
4 | BEN | 0.0867 | 0.0733 | 0.0583 | 0.0663 | 0.0726 | 0.289 | 0.237 | 0.261 | 0.292 | 0.962 | 1.04 | 0.969 | 1.31 | 0.862 | 1.24 | 1.03 | 1.05 | 0.832
5 | EMC-BAC-2 | 1.11 | 1.38 | 1.31 | 1.12 | 0.917 | 0.57 | 0.631 | 0.417 | 0.298 | 1.01 | 1.09 | 0.766 | 0.487 | 0.917 | 1.13 | 1.08 | 0.849 | 0.405
6 | ABC-1 | – | – | – | – | – | 0.257 | 0.244 | 0.285 | 0.285 | 0.802 | 0.934 | 0.832 | 0.659 | 0.761 | 1.06 | 0.895 | 0.619 | 0.535
7 | NCI-H1299 | 1.01 | 1.06 | 1.05 | 1.11 | 0.995 | – | – | – | – | 1.01 | 1.04 | 1.04 | 1.04 | 1 | 1.08 | 1.07 | 1.06 | 0.744
8 | EBC-1 | 0.433 | 0.403 | 0.422 | 0.317 | 0.189 | – | – | – | – | 0.829 | 1.06 | 1.03 | 1.08 | 0.99 | 1.14 | 1.25 | 0.877 | 0.481
9 | NCI-H358 | – | – | – | – | – | 0.297 | 0.404 | 0.445 | 0.303 | 0.877 | 0.929 | 1.03 | 1.06 | 0.935 | 1.04 | 1.03 | 0.339 | 0.246
10 | NCI-H661 | – | – | – | – | – | 0.266 | 0.284 | 0.308 | 0.288 | 1.01 | 0.982 | 0.72 | 0.605 | 0.888 | 0.947 | 1.01 | 0.967 | 0.649
11 | NCI-H650 | – | – | – | – | – | 0.45 | 0.422 | 0.522 | 0.507 | 0.899 | 0.953 | 1.05 | 1.01 | 0.895 | 1.12 | 1 | 0.791 | 0.653
12 | NCI-H1648 | – | – | – | – | – | – | – | – | – | 0.836 | 0.933 | 0.9 | 0.835 | 0.759 | 0.614 | 1.03 | 0.795 | 0.786
13 | NCI-H1623 | – | – | – | – | – | 0.545 | 0.519 | 0.613 | 0.591 | 0.822 | 1.15 | 0.957 | 1.05 | 0.908 | 1.05 | 1.11 | 0.818 | 0.893
14 | NCI-H1563 | – | – | – | – | – | 0.715 | 0.744 | 0.755 | 0.626 | 1.07 | 0.995 | 0.983 | 0.904 | 0.904 | 0.971 | 1.01 | 0.928 | 0.539
15 | IA-LM | 0.799 | 1.03 | 0.946 | 1.02 | 0.843 | – | – | – | – | 0.888 | 0.896 | 0.968 | 0.859 | 1.07 | 1.19 | 0.957 | 1.05 | 0.913
16 | NCI-H1703 | 1.17 | 1.05 | 1.23 | 0.189 | 0.149 | – | – | – | – | 1.03 | 1.2 | 1.2 | 0.934 | 0.966 | 0.924 | 1.21 | 0.238 | 0.172
17 | LCLC-103H | – | – | – | – | – | 0.351 | 0.341 | 0.358 | 0.327 | 0.928 | 1.16 | 1.04 | 1 | 0.889 | 1.04 | 0.952 | 0.84 | 0.579
18 | SW 900 | – | – | – | – | – | 0.518 | 0.674 | 0.798 | 0.595 | 0.748 | 0.733 | 0.864 | 0.592 | 0.798 | 1.03 | 1.26 | 0.166 | 0.293
